Results published in patent US20240287124A1, “PRODRUGS OF 4'-SUBSTITUTED NUCLEOSIDE REVERSE TRANSCRIPTASE INHIBITORS” (Merck Sharp & Dohme LLC, priority 2023, published 2024).

system: HIV-1 wild-type (R8) virus; test: Viral KINetics in Green cells (VIKING) assay, HIV-1 replication in MT4-GFP reporter cells; assay type: cell-based; settings: Human immunodeficiency virus 1, 10% normal human serum, MT4-GFP cells, HIV-1 wild-type (R8); read-out: Viking (10% NHS), IC50
Experimental: Antiviral potency of the compounds was determined based on their ability to block HIV-1 replication in a GFP reporter cell line; this assay is referred to as Viral KINetics in Green cells or VIKING assay. HIV-1 replication was monitored using MT4-gag-GFP clone D3 (hereafter designate MT4-GFP) cells, which are MT4 cells modified to harbor a GFP reporter gene, the expression of which is dependent on the HIV-1 proteins tat and rev. (MT4 is a human T-cell line that is particularly sensitive to HIV-1 replication.) HIV-1 infection of MT4-GFP cells results in GFP expression approximately 24 h post-infection. MT4-GFP cells were maintained at 37° C./5% CO2/90% relative humidity in RPMI 1640 supplemented with 10% fetal bovine serum, 100 U/mL penicillin/streptomycin, and […] G418 to maintain the reporter gene. For infections, MT4-GFP cells were placed in the same medium lacking G418 and infected overnight with HIV-1 wild-type (R8) virus at an approximate multiplicity of infection of 0.01 in the same incubation conditions. Cells were then washed and resuspended in RPMI 1640 containing 10% normal human serum at 2×10^5 cells/mL. Compound plates were prepared by dispensing compounds dissolved in DMSO into wells of 384-well poly D lysine-coated plates (0.2 μl/well) using an ECHO acoustic dispenser. Each compound was tested in a 10-point serial 3-fold dilution (typical final concentrations: 4 μM-0.2 nM). Controls included no inhibitor (DMSO only) and a combination of three antiviral agents as a positive control (efavirenz, indinavir, and an integrase strand transfer inhibitor at final concentrations of 4 μM each). Infected cells were added (50 μL/well) to compound plates and were maintained at 37° C./5% CO2/90% relative humidity. Infected cells were quantified at two time points, approximately 48 h and 72 h post-infection, by counting the number of green cells in each well using an Acumen eX3 scanner. The increase in the number of green cells over ˜24 h period gives the reproductive ratio, R, which is calculated by dividing the number of green cells at 72 h over those at 48 h post-infection. The percent inhibition caused by a test compound is calculated using the following formula: […]
The dose-response curves of each test compound were plotted as % inhibition versus the compound concentration. IC50 values were determined by non-linear 4-parameter fitting of the dose-response curves.

`C#C[C@]1(CO)O[C@@H](n2ccc3c(N)nc(Cl)nc32)C[C@@H]1OCOC(=O)OC(C)C` [Example 141] and `C#C[C@]1(CO)O[C@@H](n2ccc3c(N)nc(Cl)nc32)C[C@@H]1OCOC(=O)C(C)C` [Example 140] are within 1.5-fold of each other in IC50: 3.5 nM for the first, 5 nM for the second.

`C#C[C@]1(CO)O[C@@H](n2ccc3c(N)nc(Cl)nc32)C[C@@H]1OC(=O)OCc1cccnc1` [Example 166] and `C#C[C@]1(COC(=O)OCc2cccnc2)O[C@@H](n2ccc3c(N)nc(Cl)nc32)C[C@@H]1O` [Example 165] are within 1.5-fold of each other in IC50: 6.7 nM for the first, 4.9 nM for the second.

First: C#C[C@]1(CO)O[C@@H](n2ccc3c(N)nc(Cl)nc32)C[C@@H]1OC(=O)OCc1ccn(C)c(=O)c1 [Example 158]
Second: C#C[C@]1(CO)O[C@@H](n2ccc3c(N)nc(Cl)nc32)C[C@@H]1OC(=O)OCc1cccn(C)c1=O [Example 67, (2R,3S,5R)-5-(4-amino-2-chloro-7H-pyrrolo[2,3-d]pyrimidin-7-yl)-2-ethynyl-2-(hydroxymethyl)tetrahydrofuran-3-yl ((1-methyl-2-oxo-1,2-dihydropyridin-3-yl)methyl) carbonate]
The IC50 of the first is 1.7-fold higher: 11 nM for the first, 6.4 nM for the second.

Going from `C#C[C@]1(CO)O[C@@H](n2ccc3c(N(C(=O)OCCCCCCCC)C(=O)OCCCCCCCC)nc(Cl)nc32)C[C@@H]1O` [Example 224] to `C#C[C@]1(CO)O[C@@H](n2ccc3c(N(C(=O)OCCCCCC)C(=O)OCCCCCC)nc(Cl)nc32)C[C@@H]1O` [Example 222], the IC50 rises from 842 nM to 1370 nM (1.6-fold).

Going from `C#C[C@]1(COC(=O)OCc2ccccc2)O[C@@H](n2ccc3c(N)nc(Cl)nc32)C[C@@H]1OC(=O)CCCCCCC` [Example 211] to `C#C[C@]1(COC(=O)CCCCC)O[C@@H](n2ccc3c(N)nc(Cl)nc32)C[C@@H]1OC(=O)OCc1cccnc1` [Example 192], the IC50 rises from 4 nM to 6.5 nM (1.6-fold).

Compared with `C#C[C@]1(COC(=O)OCc2ccccc2)O[C@@H](n2ccc3c(NC(=O)CCc4ccccc4)nc(Cl)nc32)C[C@@H]1OC(=O)OCc1ccccc1` [Example 203], `C#C[C@]1(COC(=O)OCc2ccccc2)O[C@@H](n2ccc3c(NC(=O)CCc4ccccc4)nc(Cl)nc32)C[C@@H]1O` [Example 202] is 3.1-fold higher in IC50: 47 nM for the first, 146 nM for the second.

First: C#C[C@]1(COC(=O)[C@H](C)c2ccccc2)O[C@@H](n2ccc3c(N)nc(Cl)nc32)C[C@@H]1OC(=O)[C@H](C)c1ccccc1 [Example 98]
Second: C#C[C@]1(CO)O[C@@H](n2ccc3c(N)nc(Cl)nc32)C[C@@H]1OC(=O)[C@@H](C)c1ccccc1 [Example 102]
The IC50 of the first is 2.1-fold higher: 91 nM for the first, 43 nM for the second. The second is the more potent here.

`C#C[C@]1(COC(=O)C23CC(C2)C3)O[C@@H](n2ccc3c(N)nc(Cl)nc32)C[C@@H]1OC(=O)OCCC12CC3CC(CC(C3)C1)C2` [Example 109] and `C#C[C@]1(COC(=O)CC23CC(C2)C3)O[C@@H](n2ccc3c(N)nc(Cl)nc32)C[C@@H]1OC(=O)OCCC12CC3CC(CC(C3)C1)C2` [Example 108] are within 1.5-fold of each other in IC50: 21 nM for the first, 20 nM for the second.

Compared with `C#C[C@]1(CO)O[C@@H](n2ccc3c(N)nc(Cl)nc32)C[C@@H]1OC(=O)OCC12CC(C1)C2` [Example 110], `C#C[C@]1(CO)O[C@@H](n2ccc3c(N)nc(Cl)nc32)C[C@@H]1OC(=O)OCCC12CC(C1)C2` [Example 111] is 1.9-fold higher in IC50: 2.7 nM for the first, 5.2 nM for the second. The first is the more potent here.

Going from `C#C[C@]1(COC(=O)OCc2ccc[nH]c2=O)O[C@@H](n2ccc3c(N)nc(Cl)nc32)C[C@@H]1OC(=O)OCc1ccccc1` [Example 94] to `C#C[C@]1(COC(=O)OCc2ccc[nH]c2=O)O[C@@H](n2ccc3c(N)nc(Cl)nc32)C[C@@H]1OC(=O)OCc1ccc[nH]c1=O` [Example 205], the IC50 falls from 6.1 nM to 4 nM (1.5-fold).

Compared with `C#C[C@]1(CO)O[C@@H](n2ccc3c(NC(=O)OCCCCCCCC)nc(Cl)nc32)C[C@@H]1O` [Example 223], `C#C[C@]1(CO)O[C@@H](n2ccc3c(NC(=O)CCCCCCC)nc(Cl)nc32)C[C@@H]1O` [Example 66, N-(2-chloro-7-((2R,4S,5R)-5-ethynyl-4-hydroxy-5-(hydroxymethyl)tetrahydrofuran-2-yl)-7H-pyrrolo[2,3-d]pyrimidin-4-yl)octanamide] is 2.1-fold lower in IC50: 411 nM for the first, 197 nM for the second. The second is the more potent here.

`C#C[C@]1(CO)O[C@@H](n2ccc3c(N)nc(Cl)nc32)C[C@@H]1OC(=O)C12CC(C1)C2` [Example 105] and `C#C[C@]1(COC(=O)C23CC(C2)C3)O[C@@H](n2ccc3c(N)nc(Cl)nc32)C[C@@H]1O` [Example 106] are within 1.5-fold of each other in IC50: 3.5 nM for the first, 2.5 nM for the second.

Compared with `C#C[C@]1(CO)O[C@@H](n2ccc3c(N(C(=O)CCC45CC6CC(CC(C6)C4)C5)C(=O)CCC45CC6CC(CC(C6)C4)C5)nc(Cl)nc32)C[C@@H]1O` [Example 217], `C#C[C@]1(CO)O[C@@H](n2ccc3c(NC(=O)OCCC45CC6CC(CC(C6)C4)C5)nc(Cl)nc32)C[C@@H]1O` [Example 148] is lower in IC50: greater than 4030 nM for the first, 339 nM for the second. The second is the more potent here.

`C#C[C@]1(COC(=O)OCc2ccc[nH]c2=O)O[C@@H](n2ccc3c(N)nc(Cl)nc32)C[C@@H]1O` [Example 209] and `C#C[C@]1(COC(=O)OCc2cccn(C)c2=O)O[C@@H](n2ccc3c(N)nc(Cl)nc32)C[C@@H]1O` [Example 208] are within 1.5-fold of each other in IC50: 3.9 nM for the first, 4.4 nM for the second.

`C#C[C@]1(COC(=O)OCCCCCCCC)O[C@@H](n2ccc3c(N)nc(Cl)nc32)C[C@@H]1OC(C)=O` [Example 112] and `C#C[C@]1(COC(=O)CCCC)O[C@@H](n2ccc3c(N)nc(Cl)nc32)C[C@@H]1OC(C)=O` [Example 186] are within 1.5-fold of each other in IC50: 28 nM for the first, 25 nM for the second.

First: C#C[C@]1(COC(=O)CC23CC(C2)C3)O[C@@H](n2ccc3c(N)nc(Cl)nc32)C[C@@H]1O [Example 97]
Second: C#C[C@]1(COC(=O)OCC23CC(C2)C3)O[C@@H](n2ccc3c(N)nc(Cl)nc32)C[C@@H]1O [Example 168]
The IC50 of the first is 2.4-fold lower: 1.6 nM for the first, 3.9 nM for the second. The first is the more potent here.

Compared with `C#C[C@]1(COC(=O)OCc2cccnc2)O[C@@H](n2ccc3c(N)nc(Cl)nc32)C[C@@H]1OC(=O)OCc1cccnc1` [Example 164], `C#C[C@]1(COCOC(=O)c2ccccc2)O[C@@H](n2ccc3c(N)nc(Cl)nc32)C[C@@H]1OCOC(=O)c1ccccc1` [Example 137] is 2.9-fold lower in IC50: 13 nM for the first, 4.5 nM for the second. The second is the more potent here.

Going from `C#C[C@]1(CO)O[C@@H](n2ccc3c(NC(=O)OCC4CCCCC4)nc(Cl)nc32)C[C@@H]1O` [Example 150] to `C#C[C@]1(CO)O[C@@H](n2ccc3c(NC(=O)OCCc4ccccc4)nc(Cl)nc32)C[C@@H]1O` [Example 149], the IC50 falls from 740 nM to 429 nM (1.7-fold). The second is the more potent here.

Compared with `C#C[C@]1(COC(=O)C23CC(C2)C3)O[C@@H](n2ccc3c(N)nc(Cl)nc32)C[C@@H]1OC(=O)C12CC(C1)C2` [Example 104], `C#C[C@]1(COC(=O)CC23CC(C2)C3)O[C@@H](n2ccc3c(N)nc(Cl)nc32)C[C@@H]1OC(=O)CC12CC(C1)C2` [Example 95] is 2.1-fold higher in IC50: 4.1 nM for the first, 8.6 nM for the second.

Going from `C#C[C@]1(COC(=O)OCCC23CC(C2)C3)O[C@@H](n2ccc3c(N)nc(Cl)nc32)C[C@@H]1OC(=O)OCCC12CC(C1)C2` [Example 169] to `C#C[C@]1(COC(=O)OCC23CC(C2)C3)O[C@@H](n2ccc3c(N)nc(Cl)nc32)C[C@@H]1OC(=O)OCCC12CC3CC(CC(C3)C1)C2` [Example 175], the IC50 rises from 13 nM to 34 nM (2.6-fold).

Compared with `C#C[C@]1(COC(=O)OCCCCC[C@@H]2SC[C@@H]3NC(=O)N[C@@H]32)O[C@@H](n2ccc3c(N)nc(Cl)nc32)C[C@@H]1O` [Example 132], `C#C[C@]1(CO)O[C@@H](n2ccc3c(NC(=O)OCCCCC[C@@H]4SC[C@@H]5NC(=O)N[C@@H]54)nc(Cl)nc32)C[C@@H]1O` [Example 151] is 5.7-fold higher in IC50: 3 nM for the first, 17 nM for the second.

`C#C[C@]1(COC(=O)CCCCC)O[C@@H](n2ccc3c(N)nc(Cl)nc32)C[C@@H]1OC(=O)CCCC[C@@H]1SC[C@@H]2NC(=O)N[C@@H]21` [Example 191] and `C#C[C@]1(CO)O[C@@H](n2ccc3c(N)nc(Cl)nc32)C[C@@H]1OC(=O)OCC` [Example 155] are within 1.5-fold of each other in IC50: 20 nM for the first, 29 nM for the second.

Compared with `C#C[C@]1(CO)O[C@@H](n2ccc3c(N)nc(Cl)nc32)C[C@@H]1OC(=O)OC` [Example 157], `C#C[C@]1(COC(=O)O[C@@H](C)c2ccccc2)O[C@@H](n2ccc3c(N)nc(Cl)nc32)C[C@@H]1O` [Example 127] is 5.3-fold lower in IC50: 20 nM for the first, 3.8 nM for the second. The second is the more potent here.

`C#C[C@]1(CO)O[C@@H](n2ccc3c(NC(=O)CCCCCCCCCCCCC)nc(Cl)nc32)C[C@@H]1O` [Example 70, N-(2-chloro-7-((2R,4S,5R)-5-ethynyl-4-hydroxy-5-(hydroxymethyl)tetrahydrofuran-2-yl)-7H-pyrrolo[2,3-d]pyrimidin-4-yl)tetradecanamide] and `C#C[C@]1(CO)O[C@@H](n2ccc3c(NC(=O)CCCc4ccccc4)nc(Cl)nc32)C[C@@H]1O` [Example 198] are within 1.5-fold of each other in IC50: 58 nM for the first, 63 nM for the second.

`C#C[C@]1(COC(=O)Cc2ccc(Cl)cc2)O[C@@H](n2ccc3c(N)nc(Cl)nc32)C[C@@H]1OC(=O)OCCC12CC3CC(CC(C3)C1)C2` [Example 107] gave an IC50 of 74 nM.
